Measured values: patent publication US9550752B2, “Triazolinthione derivatives” (priority 2013, dated 2017)
Marks after values point to notes of the source that are not given here.

Conditions: method [a]: pH 2.7, 0.1% formic acid in water/acetonitrile; Table 1, formula (I)

| LogP | SMILES |
| --- | --- |
| 3.10^[a] | OC(Cc1cc(Cl)nc(Cl)c1)(Cn1ncnc1S)C1(Cl)CC1 (stereo not drawn) [Example I-8] |

Same assay, conditions: method [a]: pH 2.7; Table 3, formula (V)

| SMILES | LogP |
| --- | --- |
| CC(C)(C)C(=O)Cc1ncc(Cl)cc1Cl [Example V-13] | 3.33^[a] |
| O=C(Cc1ccc(Cl)nc1)C1(Cl)CC1 [Example V-6] | 2.34 |
| CCC(C)(CC)C(=O)Cc1ccncc1Cl [Example V-17] | 3.04^[a] |
| CC(C)(C)C(=O)Cc1cccnc1 [Example V-19] | 0.41 |

Same assay, conditions: method [a]: pH 2.7; Table 4, formula (XII)

| SMILES | LogP |
| --- | --- |
| CC(C)C(C)(C)C1(Cc2cc(Cl)ncc2F)CO1 (stereo not drawn) [XII-24] | 4.34^[a] |
| CC(C)(C)C1(Cc2ccncc2Cl)CO1 (stereo not drawn) [XII-10] | 2.80^[a] |
| CC(C)(C)C1(Cc2ccnc(Cl)c2F)CO1 (stereo not drawn) [XII-46] | 3.37^[a] |
| CC(C)(C)C1(Cc2cc(Cl)ncc2F)CO1 (stereo not drawn) [XII-28] | 3.42^[a] |
| CC(C)(C)C1(Cc2cccnc2Cl)CO1 (stereo not drawn) [XII-9] | 2.97 |
| CCC(C)(C)C1(Cc2cc(Cl)ncc2F)CO1 (stereo not drawn) [XII-27] | 3.89^[a] |
| CC(C)C(C)(C)C1(Cc2ccncc2F)CO1 (stereo not drawn) [XII-17] | 3.19^[a] |
| CCC(C)(C)C1(Cc2cc(F)ncc2Cl)CO1 (stereo not drawn) [XII-40] | 4.17^[a] |
| CCC(C)(C)C1(Cc2ccnc(Cl)c2)CO1 (stereo not drawn) [XII-18] | 3.51^[a] |
| CC(C)C(C)(C)C1(Cc2ccnc(Cl)c2)CO1 (stereo not drawn) [XII-21] | 3.94^[a] |
| CC(C)(C)C1(Cc2c(Cl)cncc2Cl)CO1 (stereo not drawn) [XII-52] | 3.89^[a] |

Same assay, conditions: method [b]: pH 7.8; Table 3, formula (V)

| SMILES | LogP |
| --- | --- |
| O=C(Cc1ccc(Cl)nc1)C1(Cl)CC1 [Example V-6] | 2.30 |
| CC(C)(C)C(=O)Cc1cccnc1 [Example V-19] | 1.71 |

Same assay, conditions: method [b]: pH 7.8; Table 4, formula (XII)

| SMILES | LogP |
| --- | --- |
| CC(C)(C)C1(Cc2cccnc2Cl)CO1 (stereo not drawn) [XII-9] | 2.96 |

Same assay, conditions: pH 2.7

| LogP | SMILES |
| --- | --- |
| 2.69^[a] | OC(Cc1cccc(Cl)c1)(Cc1cc(Cl)ncc1F)Cn1cncn1 (stereo not drawn) [XXI-79] |
| 2.30^[a] | CC(C)(C)C(O)(Cc1cccc(Cl)n1)Cn1cncn1 (racemic) [XXI-110] |
| 2.53^[a] | OC(Cc1cc(Cl)cnc1Cl)(Cn1cncn1)C1(Cl)CC1 (stereo not drawn) [XXI-88] |
| 1.20^[a] | CC(C)(F)C(O)(Cc1ccncc1Cl)Cn1cncn1 (stereo not drawn) [XXI-81] |
| 1.89^[a] | CC(CF)(CF)C(O)(Cc1cc(Cl)ncc1F)Cn1cncn1 (racemic) [XXI-49] |
| 1.31^[a] | OC(Cc1ccnnc1Cl)(Cn1cncn1)C1(Cl)CC1 (racemic) [XXI-50] |
| 2.34^[a] | CC(C)(C)C(O)(Cc1c(Cl)cncc1Cl)Cn1cncn1 (racemic) [XXI-125] |
| 2.53^[a] | OC(Cc1cc(Cl)ncc1Cl)(Cn1cncn1)C1(Cl)CC1 (racemic) [XXI-63] |
| 2.01^[a] | CC(C)(C)C(O)(Cc1nccnc1Cl)Cn1cncn1 (racemic) [XXI-115] |
| 2.82^[a] | CC(C)(C)C(O)(Cc1nc(Cl)ccc1Cl)Cn1cncn1 (racemic) [XXI-130] |
| 1.57^[a] | OC(Cc1cc(Cl)ncc1F)(Cn1cncn1)c1cccnc1Cl (racemic) [XXI-48] |
| 1.90^[a] | CCOC(C)(C)C(O)(Cc1ccncc1Cl)Cn1cncn1 (racemic) [XXI-129] |
| 1.23^[a] | OC(Cc1ccnc(Cl)c1F)(Cn1cncn1)c1ccc(Cl)nc1 (stereo not drawn) [XXI-91] |
| 1.87^[a] | CC(CF)(CF)C(O)(Cc1ccnc(Cl)c1F)Cn1cncn1 (racemic) [XXI-66] |
| 2.06^[a] | OC(Cc1cc(Cl)ncc1F)(Cn1cncn1)C1(Cl)CC1 (racemic) [XXI-45] |
| 1.39^[a] | CC(C)(C)C(O)(Cc1cnccn1)Cn1cncn1 (racemic) [XXI-118] |
| 1.64^[a] | OC(Cc1cccnc1F)(Cn1cncn1)C1(Cl)CC1 (racemic) [XXI-56] |
| 2.13^[a] | CCC(C)(C)C(O)(Cc1ccncc1Cl)Cn1cncn1 (stereo not drawn) [XXI-12] |
| 2.10^[a] | Cc1ncc(CC(O)(Cn2cncn2)C(C)(C)C)nc1Cl (racemic) [XXI-116] |
| 1.98^[a] | CC(C)(C)C(O)(Cc1ccc(Cl)nc1)Cn1cncn1 (stereo not drawn) [XXI-9] |
| 2.16^[a] | CC(C)(C)C(O)(Cc1ccnc(Cl)c1F)Cn1cncn1 (racemic) [XXI-124] |
| 1.87^[a] | CC(C)(C)C(O)(Cc1cc(Cl)ccn1)Cn1cncn1 (racemic) [XXI-119] |
| 1.66^[a] | OC(Cc1cc(Cl)ncc1F)(Cn1cncn1)C1(F)CC1 (racemic) [XXI-46] |
| 1.88^[a] | COc1nccnc1CC(O)(Cn1cncn1)C1(Cl)CC1 (stereo not drawn) [XXI-77] |

| LogP | SMILES |
| --- | --- |
| 2.34^[a] | OC(Cc1ccccc1F)(Cc1cc(Cl)ncc1F)Cn1cncn1 (stereo not drawn) [XXI-78] |
| 1.23^[a] | OC(Cc1ccnc(Cl)c1F)(Cn1cncn1)C1(F)CC1 (stereo not drawn) [XXI-92] |
| 0.63^[a] | Cc1cccc(CC(O)(Cn2cncn2)C(C)(C)C)n1 (racemic) [XXI-120] |
| 3.07^[a] | CC(C)(C)C(O)(Cc1cc(Cl)cc(Cl)n1)Cn1ncnc1S (stereo not drawn) [Example I-10] |
| 0.52^[a] | Cc1ccnc(CC(O)(Cn2cncn2)C2(Cl)CC2)c1 (racemic) [XXI-57] |
| 1.94^[a] | CC(C)(C)C(O)(Cc1cccnc1Cl)Cn1cncn1 (stereo not drawn) [XXI-10] |
| 2.08^[a] | OC(Cc1ccncc1C(F)(F)F)(Cn1cncn1)C1(Cl)CC1 (stereo not drawn) [XXI-86] |
| 1.43^[a] | OC(Cc1ccncc1Cl)(CC1CC1)Cn1cncn1 (racemic) [XXI-127] |
| 2.39^[a] | CC(C)(C)C(O)(Cc1cc(F)ncc1Cl)Cn1cncn1 (racemic) [XXI-126] |
| 2.00^[a] | CC(C)CCC(O)(Cc1ccncc1Cl)Cn1cncn1 (racemic) [XXI-128] |
| 2.23^[a] | OC(Cc1ccc(Cl)cn1)(Cn1cncn1)C1(Cl)CC1 (stereo not drawn) [XXI-72] |
| 1.73^[a] | OC(Cc1ccccc1F)(Cc1ccnc(Cl)c1F)Cn1cncn1 (stereo not drawn) [XXI-90] |
| 2.16^[a] | CC(C)(C)C(O)(Cc1cc(Cl)ncc1F)Cn1cncn1 (racemic) [XXI-113] |
| 1.92^[a] | OC(Cc1cc(Cl)nnc1Cl)(Cn1cncn1)C1(Cl)CC1 (racemic) [XXI-51] |
| 1.96^[a] | OC(Cc1nccnc1Br)(Cn1cncn1)C1(Cl)CC1 (stereo not drawn) [XXI-76] |
| 2.88^[a] | OC(Cc1ncc(Cl)cc1Cl)(Cn1cncn1)C1(Cl)CC1 (racemic) [XXI-102] |
| 0.84^[a] | Cc1cc(C(O)(Cc2ccncc2Cl)Cn2cncn2)nn1C (stereo not drawn) [XXI-71] |
| 2.40^[a] | OC(CCc1ccc(Cl)cc1)(Cc1ccncc1Cl)Cn1cncn1 (stereo not drawn) [XXI-74] |
| 1.60^[a] | OC(Cc1cc(Cl)ncc1F)(Cn1cncn1)c1ccc(Cl)nc1 (racemic) [XXI-47] |
| 2.39^[a] | OC(Cc1ccnc(Cl)c1Cl)(Cn1cncn1)C1(Cl)CC1 (stereo not drawn) [XXI-87] |
| 2.73^[a] | OC(Cc1nc(Cl)ccc1Cl)(Cn1cncn1)C1(Cl)CC1 (racemic) [XXI-101] |
| 2.02^[a] | OC(Cc1ccnc(Cl)c1F)(Cn1cncn1)C1(Cl)CC1 (racemic) [XXI-65] |
| 1.73^[a] | CCC(C)(C)C(O)(Cc1ccncc1F)Cn1cncn1 (racemic) [XXI-104] |

| SMILES | LogP |
| --- | --- |
| CC1(C(O)(Cc2ccncc2Cl)Cn2ncnc2S)CC1 (stereo not drawn) [Example I-16] | 1.96^[a] |
| CC(C)(C)C(O)(Cc1cccnc1Cl)Cn1ncnc1S (stereo not drawn) [Example I-1] | 2.31^[a] |
| OC(Cc1ccncc1F)(Cn1ncnc1S)C1(Cl)CC1 (stereo not drawn) [Example I-19] | 1.65^[a] |
| CCC(C)(C)C(O)(Cc1ccncc1Cl)Cn1ncnc1S (stereo not drawn) [Example I-20] | 2.50^[a] |
| OC(Cc1cccnc1Cl)(Cn1ncnc1S)C1(Cl)CC1 (stereo not drawn) [Example I-4] | 2.15^[a] |
| CC(C)(C)C(O)(Cc1ccncc1F)Cn1ncnc1S (stereo not drawn) [Example I-18] | 1.79^[a] |

Same assay, conditions: pH 7.8

| LogP | SMILES |
| --- | --- |
| 2.04^[b]; | CCOC(C)(C)C(O)(Cc1ccncc1Cl)Cn1cncn1 (racemic) [XXI-129] |
| 1.98^[b]; | CC(C)(C)C(O)(Cc1ccc(Cl)nc1)Cn1cncn1 (stereo not drawn) [XXI-9] |
| 1.90^[b]; | CC(C)(C)C(O)(Cc1cccnc1Cl)Cn1cncn1 (stereo not drawn) [XXI-10] |
